The values below come from patent US20250059141A1, “TLR MODULATOR AND USE THEREOF” (DUALITY BIOLOGICS (SUZHOU) CO., LTD., priority 2021, published 2025).

Molecules are shown by their SMILES. pEC50: −log10 of the molar value.

As a reminder, the pEC50 is the EC50 on a negative log10 scale, so that one unit is a factor of ten.

The subject of one test is TNF-α production in human PBMCs. Kind of test: Induction of TNF-α in human PBMCs (ELISA). Type of test: cell-based. The conditions noted are these: PBMC, 24 h, serial 3-fold dilutions, read-out: PBMC assay TNFa EC50. Here is the method: In this example, the induction activity of the compounds of the present application on human PBMCs for TNF-α and IFN-α production was assessed in human PBMCs (human peripheral blood mononuclear cells). The human PBMCs were purchased from Shanghai Saily Biotechnology Co., Ltd. (Cat. No. XFB—HP100B). PBMC cells were treated with the compounds. The compounds of the present application are diluted in DMSO, for example, to about 15 mM. The reference compound was added to the plates in sequence after diluted to 5 mg/mL. The compounds were serially 3- or 4-fold diluted to 8 concentrations and added to plates in duplicate (Table 2-1 for serial 3-fold dilutions and Table 2-2 for serial 4-fold dilutions). For the negative control wells, DMSO was added at 0.4 μL/well, and a 5 mg/mL reference compound solution was added to the positive control wells at 0.4 μL/well. The final concentration of DMSO was 0.2%. Frozen human PBMCs in cryopreservation tubes were quickly thawed in a 37° C. water bath and transferred into 50-mL centrifuge tubes. Prewarmed RPMI1640 medium was gradually added and the mixture was well mixed and centrifuged for 15 min before the supernatant was discarded. The cells were resuspended in a culture medium and counted. The cell suspension was adjusted to 2.5×10^6 cells/mL with the culture medium. Diluted cells were added at 200 μL/500,000 cells/well in 96-well plates containing the compounds. The cell plates were incubated at 37° C./5% CO2 for 24 h.
The plate was then washed thrice. […] Termination of reaction: The reaction was terminated by quickly adding the stop solution at 100 μL/well. Plate reading: The reading at wavelength 450 nm was detected by an M2e instrument within 10 min after the termination.
Compound activity data analysis: The OD450 values were converted to TNF-α and IFN-α contents by GraphPad Prism software analysis and fitted to give dose-response curves of the compounds. The EC50 values for the compounds were calculated, where the Emax values are the maximal values for TNF-α and IFN-α.
In general terms: An ELISA detects its analyte on a solid surface through an enzyme-linked reagent.
As to `CCCN(OCc1ccc(N)cc1)C(=O)C1=Cc2ccc(-c3cncc(CO)c3)cc2N=C(N)C1` [Compound 15], the pEC50 was 8.52.
Take `CCCN(OCc1ccc(N)cc1)C(=O)C1=Cc2ccc(-c3cccc(S(N)(=O)=O)c3)cc2N=C(N)C1` [Compound 35]: the pEC50 was 8.30.
Consider `CCCN(OCc1ccc(N)cc1)C(=O)C1=Cc2ccc(-c3cncc(S(N)(=O)=O)c3)cc2N=C(N)C1` [Compound 36], for which the pEC50 was 7.91.
Take `CCCN(OCc1ccc(N)cc1)C(=O)C1=Cc2ccc(C(=O)Nc3cccnc3)cc2N=C(N)C1` [Compound 40]: the pEC50 is 8.04.
On the same count and under the same terms, for `CCCN(OCc1ccc(N)cc1)C(=O)C1=Cc2ccc(-c3cccc(S(=O)(=O)N4CC(O)C4)c3)cc2N=C(N)C1` [Compound 41] the value was 7.82.
Take `CCCN(OCc1ccc(N)cc1)C(=O)C1=Cc2ccc(-c3ccc(C(=O)N4CC[C@@H](O)C4)cc3)cc2N=C(N)C1` [Compound 42]: the pEC50 was 7.43.
As for `CCCN(OCc1ccc(N)cc1)C(=O)C1=Cc2ccc(-c3ccc4c(c3)C(=O)OC4)cc2N=C(N)C1` [Compound 43], the pEC50 is 8.09.
Same read-out and setting: the figure for `NC1=Nc2cc(-c3cncc(CO)c3)ccc2C=C(C(=O)N(CC2CC2)OCc2ccc(N)cc2)C1` [Compound 45] is 8.13; for `CCCN(OCc1ccc(N)cc1)C(=O)C1=Cc2ccc(-c3cncc(Cl)c3)cc2N=C(N)C1` [Compound 49] it is 7.58; for `CCCN(OCc1ccc(N)cc1)C(=O)C1=Cc2ccc(-c3cncc(C#N)c3)cc2N=C(N)C1` [Compound 50] it is 8.11.
On to `CCCN(OCc1ccc(N)cc1)C(=O)C1=Cc2ccc(-c3ccc(C#N)nc3)cc2N=C(N)C1` [Compound 51], for which the pEC50 is 7.76.
Still for that read-out and setting: the figure for `CCCN(OCc1ccc(N)cc1)C(=O)C1=Cc2ccc(-c3cncc(N)c3)cc2N=C(N)C1` [Compound 52] is 8.07; for `CCCN(OCc1ccc(N)cc1)C(=O)C1=Cc2ccc(-c3cncc(CN)c3)cc2N=C(N)C1` [Compound 54] it is 8.40; for `CCCN(OCc1ccc(N)cc1)C(=O)C1=Cc2ccc(-c3ccc(N4CCOCC4)nc3)cc2N=C(N)C1` [Compound 55] it is 7.48.
In the case of `CCCN(OCc1ccc(N)cc1)C(=O)C1=Cc2ccc(-c3cncc(S(C)(=O)=O)c3)cc2N=C(N)C1` [Compound 56], the pEC50 was 8.13.

The same test, now with this note: PBMC, 24 h, serial 4-fold dilutions, class symbols, read-out: PBMC assay TNFa EC50.
Regarding `CCCN(OCc1ccc(N)cc1)C(=O)C1=Cc2ccc(-c3cncc(C(=O)O)c3)cc2N=C(N)C1` [Compound 32], the negative logarithm of the EC50 (pEC50) was 7.30 to 8.00.
As for `CCCN(OCc1ccc(N)cc1)C(=O)C1=Cc2ccc(C(=O)N3CC(CO)C3)cc2N=C(N)C1` [Compound 37], the pEC50 was 7.30 to 8.00.
Turning to `CCCN(OCc1ccc(N)cc1)C(=O)C1=Cc2ccc(-c3cccc(S(=O)(=O)N4CC(O)C4)c3)cc2N=C(N)C1` [Compound 41], the pEC50 is at least 8.00.
As to `CCCN(OCc1ccc(N)cc1)C(=O)C1=Cc2ccc(-c3ccc(C(=O)N4CC[C@@H](O)C4)cc3)cc2N=C(N)C1` [Compound 42], the negative logarithm of the EC50 (pEC50) is 7.30 to 8.00.
Same read-out and setting: for `CCCN(OCc1ccc(N)cc1)C(=O)C1=Cc2ccc(C(=O)N3CCC(O)C3)cc2N=C(N)C1` (stereo not drawn) [Compound 46] the value was 7.30 to 8.00; for `CCCN(OCc1ccc(N)cc1)C(=O)C1=Cc2ccc(C(=O)N3CCOC(CO)C3)cc2N=C(N)C1` (stereo not drawn) [Compound 47], 7.30 to 8.00; for `CCCN(OCc1ccc(N)cc1)C(=O)C1=Cc2ccc(C(=O)NCCO)cc2N=C(N)C1` [Compound 48], 7.30 to 8.00.
For the compound `CCCN(OCc1ccc(N)cc1)C(=O)C1=Cc2ccc(-c3cncc(C(F)(F)F)c3)cc2N=C(N)C1` [Compound 53], the pEC50 is 7.30 to 8.00.
For `NC1=Nc2cc(-c3cncc(CO)c3)ccc2C=C(C(=O)N(CCC(F)(F)F)OCc2ccc(N)cc2)C1` [Compound 58], the pEC50 was at least 8.00.
For the compound `CCCN(OCc1ccc(N)cc1Cl)C(=O)C1=Cc2ncc(-c3cncc(CO)c3)cc2N=C(N)C1` [Compound 59], the pEC50 was at least 8.00.
On to `CCCN(OCc1ccc(N)cc1OC)C(=O)C1=Cc2ncc(-c3cncc(CO)c3)cc2N=C(N)C1` [Compound 60], for which the pEC50 is at least 8.00.
With `CCCN(OCc1ccc(N)cc1)C(=O)C1=Cc2ncc(-c3cncc(CO)c3)cc2N=C(N)C1` [Compound 61], the negative logarithm of the EC50 (pEC50) was at least 8.00.
As for `CCCN(OCc1ccc(N)cc1)C(=O)C1=Cc2ccc(-c3cncc(CO)c3)nc2N=C(N)C1` [Compound 62], the pEC50 is at least 8.00.
Turning to `CCCN(OCc1ccc(N)cc1)C(=O)C1=Cc2ccc(-c3cnc4c(c3)C(=O)OC4)nc2N=C(N)C1` [Compound 63], the pEC50 is at least 8.00.
In the case of `CCCN(OCc1ccc(N)cc1)C(=O)C1=Cc2ccc(-c3cccc(S(=O)(=O)NCCO)c3)cc2N=C(N)C1` [Compound 64], the pEC50 was at least 8.00.
In the case of `CCCN(OCc1ccc(N)cc1)C(=O)C1=Cc2ccc(-c3cccc(S(=O)(=O)N4CCC(O)CC4)c3)cc2N=C(N)C1` [Compound 66], the pEC50 was at least 8.00.
Take `CCCN(OCc1ccc(N)cc1)C(=O)C1=Cc2ccc(-c3cccc(S(=O)(=O)N4CCNCC4)c3)cc2N=C(N)C1` [Compound 67]: the pEC50 was at least 8.00.
Regarding `CCCN(OCc1ccc(N)cc1)C(=O)C1=Cc2ccc(-c3cccc(S(=O)(=O)N4CCOCC4)c3)cc2N=C(N)C1` [Compound 68], the pEC50 is at least 8.00.
Still for that read-out and setting: the figure for `CCCN(OCc1ccc(N)cc1)C(=O)C1=Cc2ccc(-c3cncc(S(=O)(=O)N4CCNCC4)c3)cc2N=C(N)C1` [Compound 69] is at least 8.00.
Turning to `CCCN(OCc1ccc(N)cc1)C(=O)C1=Cc2ccc(-c3cncc(S(=O)(=O)NCCO)c3)cc2N=C(N)C1` [Compound 70], the pEC50 was at least 8.00.
As to `CCCN(OCc1ccc(N)cc1)C(=O)C1=Cc2ccc(-c3cncc(S(=O)(=O)N4CCC(O)CC4)c3)cc2N=C(N)C1` [Compound 71], the pEC50 is at least 8.00.
For `CCCN(OCc1ccc(N)cc1)C(=O)C1=Cc2ccc(-c3cncc(S(=O)(=O)N4CC[C@H](O)C4)c3)cc2N=C(N)C1` [Compound 72], the pEC50 was at least 8.00.
For `CCCN(OCc1ccc(N)cc1)C(=O)C1=Cc2ccc(-c3cncc([S+](C)[O-])c3)cc2N=C(N)C1` (stereo not drawn) [Compound 73], the pEC50 was at least 8.00.
With `CCCN(OCc1ccc(N)cc1)C(=O)C1=Cc2ccc(C(=O)NC(C)(C)c3ccccc3)cc2N=C(N)C1` [Compound 76], the pEC50 was at least 8.00.
Consider `CCCN(OCc1ccc(N)cc1)C(=O)C1=Cc2ccc(C(=O)N[C@@H](C)c3ccccc3)cc2N=C(N)C1` [Compound 77], for which the pEC50 is at least 8.00.
As for `CCCN(OCc1ccc(N)cc1)C(=O)C1=Cc2ccc(C(=O)N[C@H]3C[C@@H]3c3ccccc3)cc2N=C(N)C1` [Compound 78], the pEC50 is at least 8.00.
For `CCCN(OCc1ccc(N)cc1)C(=O)C1=Cc2ccc(C(=O)NC3COC3)cc2N=C(N)C1` [Compound 81], the pEC50 is 7.30 to 8.00.
For `CCCN(OCc1ccc(N)cc1)C(=O)C1=Cc2ccc(C(=O)NC3CCCCC3)cc2N=C(N)C1` [Compound 82], the pEC50 was at least 8.00.
The same measure, in the same setting: the figure for `CCCN(OCc1ccc(N)cc1)C(=O)C1=Cc2ccc(C(=O)NC3CCOCC3)cc2N=C(N)C1` [Compound 84] is at least 8.00.
Regarding `CCCN(OCc1ccc(N)cc1)C(=O)C1=Cc2ccc(C(=O)Nc3cncc(OC)c3)cc2N=C(N)C1` [Compound 85], the pEC50 was at least 8.00.
For `CCCN(OCc1ccc(N)cc1)C(=O)C1=Cc2ccc(C(=O)Nc3cccc(CN)c3)cc2N=C(N)C1` [Compound 86], the pEC50 was at least 8.00.
In the case of `CCCN(OCc1ccc(N)cc1)C(=O)C1=Cc2ccc(C(=O)Nc3ncco3)cc2N=C(N)C1` [Compound 87], the pEC50 was at least 8.00.
As to `CCCN(OCc1ccc(N)cc1)C(=O)C1=Cc2ccc(C(=O)Nc3ccn(C)n3)cc2N=C(N)C1` [Compound 88], the pEC50 is at least 8.00.
On to `CCCN(OCc1ccc(N)cc1)C(=O)C1=Cc2ccc(C(=O)Nc3ccc4cn[nH]c4c3)cc2N=C(N)C1` [Compound 89], for which the negative-log EC50 (pEC50) was 7.30 to 8.00.
Same read-out and setting: for `CCCN(OCc1ccc(N)cc1)C(=O)C1=Cc2ccc(C(=O)Nc3ccc4c(c3)CNC4)cc2N=C(N)C1` [Compound 90] the value was at least 8.00; for `CCCN(OCc1ccc(N)cc1)C(=O)C1=Cc2ccc(C(=O)N3CCN(C)CC3)cc2N=C(N)C1` [Compound 93], at least 8.00; for `CCCN(OCc1ccc(N)cc1)C(=O)C1=Cc2ccc(C(=O)N3CC(Oc4ccccc4)C3)cc2N=C(N)C1` [Compound 94], at least 8.00.
For the compound `CCCN(OCc1ccc(N)cc1)C(=O)C1=Cc2ccc(C(=O)N3CC4(COC4)C3)cc2N=C(N)C1` [Compound 95], the pEC50 is at least 8.00.
Regarding `CCCN(OCc1ccc(N)cc1)C(=O)C1=Cc2ccc(C(=O)N3CCN(c4ccccc4)CC3)cc2N=C(N)C1` [Compound 97], the pEC50 is at least 8.00.
